The source of these data is patent publication US20180155341A1, “Antibacterial Compounds” (Janssen Sciences Ireland UC, priority 2015, published 2018).

Assay [1] relates to Mycobacterium tuberculosis strain EH 4.0 (361.269). The assay can be described thus: Test 4: MIC determination against M. tuberculosis, resazurin fluorescence read-out, different strain. The class given is cell-based. The conditions noted are these: read-out: pIC50 (converted). The text has this:
Test 4 (See Also Test 1 Above; in this Test a Different Strain of Mycobacterium tuberculosis Strain is Employed)
Appropriate solutions of experimental and reference compounds were made in 96 well plates with 7H9 medium. Samples of Mycobacterium tuberculosis strain EH 4.0 (361.269) were taken from cultures in stationary growth phase. These were first diluted to obtain an optical density of 0.3 at 600 nm wavelength and then diluted 1/100, resulting in an inoculum of approximately 5×10 exp5 colony forming units per well. Plates were incubated at 37° C. in plastic bags to prevent evaporation. After 7 days, resazurin was added to all wells.

The test system of assay [2] is Mycobacterium tuberculosis strain H37Rv. The experiment in a line: Test 1: MIC determination against M. tuberculosis, resazurin fluorescence read-out. The class given is cell-based. As to conditions: Test 1, strain H37Rv.
For assay [3], the system named is M. tuberculosis H37Rv. The conditions noted are these: strain H37Rv, inside macrophages; cited from earlier work.
For assay [4], the system named is MDR tuberculosis. As to conditions: stated in J. Medicinal Chemistry, 2014, 57 (12); cited from earlier work.
For assay [5], the system named is replicating and non-replicating bacteria. The conditions noted are these: stated in J. Medicinal Chemistry, 2014, 57 (12); cited from earlier work.

Converted amounts (≈) assume the structure as drawn.

Regarding `CCc1nc2ncc(Cl)cn2c1C(=O)NCc1ccc2nc(N3CC4(CC(c5ccc(OC(F)(F)F)cc5)C4)C3)ccc2c1` [Compound 1], in assay [1], the IC50 was 39.8 nM.
`CCc1nc2ccc(Cl)cn2c1C(=O)NCc1ccc2nc(N3CC4(CC(c5ccc(OC(F)(F)F)cc5)C4)C3)ccc2c1` [Compound 2]: the IC50 in assay [2] (first test) was 676 nM; in assay [2] (repeated (2nd) test), 692 nM; in assay [2] (repeated (3rd) test), 589 nM; in assay [1], 200 nM.
Consider `CCc1nc2ccc(Cl)cn2c1C(=O)NCc1ccc2nc(N3CCC(c4ccc(OC(F)(F)F)cc4)CC3)ccc2c1` [Compound 3], for which the IC50 in assay [1] is 50.1 nM.
Same read-out and setting: for `CCc1nc2ccc(Cl)cn2c1C(=O)NCc1ccc2nc(N3CC4CC(F)CC4C3)ccc2c1` (centres unmarked) [Compound 4] the value was 31.6 nM.
Regarding `Cc1nc2sccn2c1C(=O)NCc1ccc2nc(N3CCC(c4ccc(OC(F)(F)F)cc4)CC3)ccc2c1` [Compound 7], the IC50 in assay [1] was 200 nM.
As to `CCc1nc2n(c1C(=O)NCc1ccc3nc(N4CCC(c5ccc(OC(F)(F)F)cc5)CC4)ccc3c1)CCN(C)C2` [Compound 8], in assay [1], the IC50 was 158 nM.
Take `Cc1nc2sccn2c1C(=O)NCc1ccc2nc(N3CCN(c4ccc(OC(F)(F)F)cc4)CC3)ccc2c1` [Compound 9]: the IC50 in assay [1] is 141 nM.
As to `CCc1nc2n(c1C(=O)NCc1ccc3nc(N4CCN(c5ccc(OC(F)(F)F)cc5)CC4)ccc3c1)CCCC2` [Compound 10], the IC50 in assay [1] was 126 nM.
The same measure, in the same setting: for `Cc1nc2sccn2c1C(=O)NCc1ccc2nc(N(C)CCc3ccc(OC(F)(F)F)cc3)ccc2c1` [Compound 11] the value was 355 nM; for `CCc1c(C(=O)NCc2ccc3nc(N4CC5(CC(c6ccccc6)C5)C4)ccc3c2)c2cc(Cl)cnc2n1C` [Compound 12], > 12600 nM.
With `CCc1c(C(=O)NCc2ccc3nc(N4CC(c5ccccc5)C4)ccc3c2)c2cc(Cl)cnc2n1C` [Compound 13], the IC50 in assay [1] is > 12600 nM.
On to `CCc1nc2ccc(Cl)cn2c1C(=O)NCc1ccc2nc(N(C)Cc3ccc(OC(F)(F)F)cc3)cnc2c1` [Compound 15], for which the IC50 in assay [1] was 631 nM.
For the molecule `CCc1nc2ccc(Cl)cn2c1C(=O)NCc1ccc2nc(N(C)Cc3ccc(OC(F)(F)F)cc3)ccc2c1` [Compound 17], the IC50 in assay [1] is 79.4 nM.
As for `CCc1nc2ccc(Cl)cn2c1C(=O)NCc1ccc2cc(N(C)Cc3ccc(OC(F)(F)F)cc3)cnc2c1` [Compound 18], the IC50 in assay [1] is 1000 nM.
Still for that read-out and setting: for `Cc1nc2sccn2c1C(=O)NCc1ccc2nc(N(C)Cc3ccc(OC(F)(F)F)cc3)ccc2c1` [Compound 19] the value was 282 nM; for `CCc1nc2ccc(Cl)cn2c1C(=O)NCc1ccc2ncc(N(C)Cc3ccc(OC(F)(F)F)cc3)cc2c1` [Compound 20], 794 nM; for `CCc1c(C(=O)NCc2ccc3nc(N4CCC(c5ccc(OC(F)(F)F)cc5)CC4)ccc3c2)c2cc(Cl)ccc2n1C` [Compound 21], > 12600 nM.
Consider `CCc1c(C(=O)NCc2ccc3nc(N4CCC(c5ccc(OC(F)(F)F)cc5)CC4)ccc3c2)c2cc(Cl)cnc2n1C` [Compound 22], for which the IC50 in assay [1] is > 12600 nM.
For the molecule `O=C(NCc1ccc2nc(N3CCC(c4ccc(OC(F)(F)F)cc4)CC3)ccc2c1)c1cc2c([nH]1)CCCC2` [Compound 23], the IC50 in assay [1] was > 12600 nM.
For `CCc1nc2ccc(Cl)cn2c1C(=O)NCc1ccc2nc(N3CCC(F)(F)CC3)ccc2c1` [Compound 24], the IC50 in assay [1] was 6.31 nM.
On to `CCc1nc2ccc(Cl)cn2c1C(=O)NCc1ccc2nc(N3CC4(CC(F)C4)C3)ccc2c1` [Compound 25], for which, in assay [1], the IC50 is 178 nM.
On the same count and under the same terms, for `Cc1nn2ccccc2c1C(=O)NCc1ccc2nc(N3CCC(c4ccc(OC(F)(F)F)cc4)CC3)ccc2c1` [Compound 26] the value was 398 nM; for `Cc1nn2ccccc2c1C(=O)NCc1ccc2nc(N3CCN(c4ccc(OC(F)(F)F)cc4)CC3)ccc2c1` [Compound 27], 794 nM.
`CCc1nc2ccc(Cl)cn2c1C(=O)NCc1ccc(N2CCC(c3ccc(OC(F)(F)F)cc3)CC2)cc1` [Compound Q203]: the MIC50 in assay [3] was 0.28 nM (≈ 0.156 ng/mL). Besides, in assay [4], the “activity against MDR tuberculosis” value was “activity against MDR tuberculosis”. Besides, the “activity against replicating and non-replicating bacteria” value in assay [5] is on record as “highly active”.
